# Data published in ChEMBL document CHEMBL4385603 (J Med Chem, 2019).
# What was measured:
# [1] = target: T1, Induced myeloid leukemia cell differentiation protein Mcl-1 (Homo sapiens, UniProt Q07820)
# Description: Inhibition of FITC-labeled Bim peptide binding to His6-tagged MBP-fused Mcl-1 (unknown origin) by fluorescence polarization assay
# [2] = target: T1, Induced myeloid leukemia cell differentiation protein Mcl-1; remark: listed apart in the source
# Description: Inhibition of FITC-labeled Bim peptide binding to His6-tagged MBP-fused Mcl-1 (unknown origin) in presence of 1% fetal bovine serum by fluorescence polarization assay
# [3] = target: Apoptosis regulator Bcl-2 (Homo sapiens, UniProt P10415)
# Description: Inhibition of FITC-labeled Bak peptide binding to Bcl-2 (unknown origin) after 0.5 hrs by fluorescence polarization assay
# K562 = assay: cells; conditions: Homo sapiens, K562, 72 h
# Description: Antiproliferative activity against Mcl1-insensitive human K562 cells assessed as cell growth inhibition after 72 hrs by Celltiter-glo luminescence assay
# [4] = target: T1, Induced myeloid leukemia cell differentiation protein Mcl-1; remark: listed apart in the source
# Description: Inhibition of FITC-labeled Bak peptide binding to MBP-fused Mcl-1 (unknown origin) measured after 3 hrs by TR-FRET assay
# NCI-H929 = assay: cells; conditions: Homo sapiens, NCI-H929, 72 h
# Description: Antiproliferative activity against Mcl1-sensitive human NCI-H929 cells assessed as cell growth inhibition after 72 hrs by Celltiter-glo luminescence assay
# [5] = target: T1, Induced myeloid leukemia cell differentiation protein Mcl-1; remark: listed apart in the source
# Description: Inhibition of FITC-labeled Bak peptide binding to MBP-fused Mcl-1 (unknown origin) measured after 3 hrs in presence of 1% fetal bovine serum by TR-FRET assay
# Bcl-2-like protein 1 = Bcl-2-like protein 1 (Homo sapiens, UniProt Q07817)
# Chain of Bcl-2-like protein 1 (Q07817 whole entry): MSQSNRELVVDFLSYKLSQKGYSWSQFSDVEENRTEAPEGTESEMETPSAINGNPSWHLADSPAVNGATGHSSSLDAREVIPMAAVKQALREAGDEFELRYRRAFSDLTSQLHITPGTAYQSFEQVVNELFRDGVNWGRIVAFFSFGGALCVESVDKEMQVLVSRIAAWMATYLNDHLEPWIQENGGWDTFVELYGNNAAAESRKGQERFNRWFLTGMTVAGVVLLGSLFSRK
# Description: Inhibition of FITC-labeled Bak peptide binding to Bcl-xL (unknown origin) after 0.5 hrs by fluorescence polarization assay
# T1 sequence (Q07820 whole entry): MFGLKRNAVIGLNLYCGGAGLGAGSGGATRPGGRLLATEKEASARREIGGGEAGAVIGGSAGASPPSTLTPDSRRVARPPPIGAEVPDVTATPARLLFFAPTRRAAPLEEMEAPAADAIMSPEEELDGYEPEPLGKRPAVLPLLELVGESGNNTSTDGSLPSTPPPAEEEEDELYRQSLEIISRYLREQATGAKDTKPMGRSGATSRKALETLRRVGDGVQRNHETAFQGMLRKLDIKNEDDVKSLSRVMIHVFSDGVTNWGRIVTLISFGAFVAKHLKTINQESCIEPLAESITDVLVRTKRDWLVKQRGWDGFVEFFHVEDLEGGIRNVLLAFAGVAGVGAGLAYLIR
# Chain of Apoptosis regulator Bcl-2 (P10415 whole entry): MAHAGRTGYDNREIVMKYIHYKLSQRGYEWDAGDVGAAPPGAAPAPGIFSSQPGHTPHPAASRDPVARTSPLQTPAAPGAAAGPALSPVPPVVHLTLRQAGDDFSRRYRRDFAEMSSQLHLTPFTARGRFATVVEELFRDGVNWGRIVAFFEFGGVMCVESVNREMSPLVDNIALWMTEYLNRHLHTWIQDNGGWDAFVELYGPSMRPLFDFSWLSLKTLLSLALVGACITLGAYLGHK
Ki [1],Ki [2],SMILES,other results
12 nM,> 200 nM,Cc1cc(OCCCc2c3n(c4c(-c5c(C)nn(C)c5C)c(Cl)ccc24)CCC(C)N(Cc2cccc(C(=O)O)c2)C3=O)cc(C)c1Cl (configuration not stated),
8.7 nM,150 nM,Cc1cc(OCCCc2c3n(c4c(-c5c(C)nn(C)c5C)c(Cl)ccc24)C[C@H](C)N(Cc2ccc(C(=O)O)o2)C3=O)cc(C)c1Cl,
9.9 nM,97 nM,Cc1cc(OCCCc2c3n(c4c(-c5c(C)nn(C)c5C)c(Cl)ccc24)C[C@H](C)N(Cc2cccc(C(=O)O)c2)C3=O)cc(C)c1Cl,
22 nM,193 nM,Cc1cc(OCCCc2c3n(c4c(-c5c(C)nn(C)c5C)c(Cl)ccc24)[C@@H](C)CN(Cc2ccc(C(=O)O)o2)C3=O)cc(C)c1Cl,
1.8 nM,53 nM,Cc1cc(OCCCc2c3n(c4c(-c5c(C)nn(C)c5C)c(Cl)ccc24)C[C@@H](C)N(Cc2ccc(C(=O)O)cc2)C3=O)cc(C)c1Cl,
7.1 nM,22 nM,Cc1cc(OCCCc2c3n(c4c(-c5c(C)nn(C)c5C)c(Cl)ccc24)CC(C)CN(Cc2ccc(C(=O)O)cc2)C3=O)cc(C)c1Cl (configuration not stated),
2.1 nM,67 nM,Cc1cc(OCCCc2c3n(c4c(-c5c(C)nn(C)c5C)c(Cl)ccc24)C[C@@H](C)N(Cc2cccc(C(=O)O)c2)C3=O)cc(C)c1Cl,
5.8 nM,137 nM,Cc1cc(OCCCc2c3n(c4c(-c5c(C)nn(C)c5C)c(Cl)ccc24)CCN(Cc2ccc(C(=O)O)o2)C3=O)cc(C)c1Cl,
73 nM,145 nM,Cc1cc(OCCCc2c3n(c4c(-c5c(C)nn(C)c5C)c(Cl)ccc24)C[C@H](C)NC3=O)cc(C)c1Cl,
11 nM,144 nM,Cc1cc(OCCCc2c3n(c4c(-c5c(C)nn(C)c5C)c(Cl)ccc24)CC(C)CN(Cc2cccc(C(=O)O)c2)C3=O)cc(C)c1Cl (configuration not stated),
9.6 nM,54 nM,Cc1cc(OCCCc2c3n(c4c(-c5c(C)nn(C)c5C)c(Cl)ccc24)C[C@H](C)N(Cc2ccc(C(=O)O)cc2)C3=O)cc(C)c1Cl,
35 nM,> 200 nM,Cc1cc(OCCCc2c3n(c4c(-c5c(C)nn(C)c5C)c(Cl)ccc24)CCNC3=O)cc(C)c1Cl,
,,Cc1cc(OCCCc2c3n(c4c(-c5c(C)nn(C)c5C)c(Cl)ccc24)[C@H](C)CN(c2cccc(C(=O)O)c2)C3=O)cc(C)c1Cl,Ki [3]: 990 nM; GI50 (K562): > 12500 nM; Ki [4]: 1.4 nM; GI50 (NCI-H929): 4400 nM; Ki [5]: 2.6 nM; Ki (Bcl-2-like protein 1): > 40000 nM
,,Cc1cc(OCCCc2c3n(c4c(-c5c(C)nn(C)c5C)c(Cl)ccc24)[C@H](C)CN(c2ccc(C(=O)O)cc2)C3=O)cc(C)c1Cl,Ki [3]: 690 nM; GI50 (K562): > 12500 nM; Ki [4]: 1.3 nM; GI50 (NCI-H929): 4000 nM; Ki [5]: 4.5 nM; Ki (Bcl-2-like protein 1): > 40000 nM
35 nM,191 nM,Cc1cc(OCCCc2c3n(c4c(-c5c(C)nn(C)c5C)c(Cl)ccc24)[C@@H](C)CN(Cc2ccc(C(=O)O)cc2)C3=O)cc(C)c1Cl,
5.9 nM,39 nM,Cc1cc(OCCCc2c3n(c4c(-c5c(C)nn(C)c5C)c(Cl)ccc24)C[C@@H](C)N(Cc2ccc(C(=O)O)o2)C3=O)cc(C)c1Cl,
70 nM,> 200 nM,Cc1cc(OCCCc2c3n(c4c(-c5c(C)nn(C)c5C)c(Cl)ccc24)CCC(C)NC3=O)cc(C)c1Cl (configuration not stated),
,,Cc1cc(OCCCc2c3n(c4c(-c5c(C)nn(C)c5C)c(Cl)ccc24)[C@H](C)CN(c2cc(C(=O)O)cc4c2OCO4)C3=O)cc(C)c1Cl,Ki [3]: 630 nM; GI50 (K562): > 12500 nM; Ki [4]: 0.42 nM; GI50 (NCI-H929): 1700 nM; Ki [5]: 1.4 nM; Ki (Bcl-2-like protein 1): 25000 nM

Ki [1],Ki [2],SMILES,other results
1 nM,26 nM,Cc1cc(OCCCc2c3n(c4c(-c5c(C)nn(C)c5C)c(Cl)ccc24)[C@H](C)CN(Cc2ccc(C(=O)O)o2)C3=O)cc(C)c1Cl,
12 nM,101 nM,Cc1cc(OCCCc2c3n(c4c(-c5c(C)nn(C)c5C)c(Cl)ccc24)CCCNC3=O)cc(C)c1Cl,
37 nM,170 nM,Cc1cc(OCCCc2c3n(c4c(-c5c(C)nn(C)c5C)c(Cl)ccc24)[C@@H](C)CN(Cc2cccc(C(=O)O)c2)C3=O)cc(C)c1Cl,
7.6 nM,81 nM,Cc1cc(OCCCc2c3n(c4c(-c5c(C)nn(C)c5C)c(Cl)ccc24)CC(C)CN(Cc2ccc(C(=O)O)o2)C3=O)cc(C)c1Cl (configuration not stated),
,,Cc1cc(OCCCc2c3n(c4c(-c5c(C)nn(C)c5C)c(Cl)ccc24)[C@H](C)CN(c2cc(C(=O)O)cc4c2ccn4C)C3=O)cc(C)c1Cl,Ki [3]: 630 nM; GI50 (K562): > 12500 nM; Ki [4]: 1.3 nM; GI50 (NCI-H929): 2100 nM; Ki [5]: 6.8 nM; Ki (Bcl-2-like protein 1): > 40000 nM
,,Cc1cc(OCCCc2c3n(c4c(-c5c(C)nn(C)c5C)c(Cl)ccc24)[C@H](C)CN(c2cccc4c(C(=O)O)cccc24)C3=O)cc(C)c1Cl,Ki [3]: 380 nM; GI50 (K562): 2500 nM; Ki [4]: 0.33 nM; Ki [5]: 0.77 nM; Ki (Bcl-2-like protein 1): 26000 nM
8.2 nM,120 nM,Cc1cc(OCCCc2c3n(c4c(-c5c(C)nn(C)c5C)c(Cl)ccc24)CCC(C)N(Cc2ccc(C(=O)O)o2)C3=O)cc(C)c1Cl (configuration not stated),
42 nM,150 nM,Cc1cc(OCCCc2c3n(c4c(-c5c(C)nn(C)c5C)c(Cl)ccc24)CC(C)CNC3=O)cc(C)c1Cl (configuration not stated),
,,Cc1cc(OCCCc2c3n(c4c(-c5c(C)nn(C)c5C)c(Cl)ccc24)[C@H](C)CN(c2cc(C(=O)O)c4ccn(C)c4c2)C3=O)cc(C)c1Cl,Ki [3]: 770 nM; GI50 (K562): > 12500 nM; Ki [4]: 0.21 nM; GI50 (NCI-H929): 820 nM; Ki [5]: 1.5 nM; Ki (Bcl-2-like protein 1): > 40000 nM
0.77 nM,6.7 nM,Cc1cc(OCCCc2c3n(c4c(-c5c(C)nn(C)c5C)c(Cl)ccc24)[C@H](C)CN(Cc2ccc(C(=O)O)cc2)C3=O)cc(C)c1Cl,
1.1 nM,26 nM,Cc1cc(OCCCc2c3n(c4c(-c5c(C)nn(C)c5C)c(Cl)ccc24)[C@H](C)CN(Cc2cccc(C(=O)O)c2)C3=O)cc(C)c1Cl,
27 nM,151 nM,Cc1cc(OCCCc2c3n(c4c(-c5c(C)nn(C)c5C)c(Cl)ccc24)C[C@@H](C)NC3=O)cc(C)c1Cl,
,,Cc1cc(OCCCc2c3n(c4c(-c5c(C)nn(C)c5C)c(Cl)ccc24)[C@H](C)CN(c2cn(C)c4cc(C(=O)O)ccc24)C3=O)cc(C)c1Cl,Ki [3]: 500 nM; GI50 (K562): > 12500 nM; Ki [4]: 0.081 nM; GI50 (NCI-H929): 290 nM; Ki [5]: 0.38 nM; Ki (Bcl-2-like protein 1): > 40000 nM
9.6 nM,52 nM,Cc1cc(OCCCc2c3n(c4c(-c5c(C)nn(C)c5C)c(Cl)ccc24)CCN(Cc2cccc(C(=O)O)c2)C3=O)cc(C)c1Cl,
6.6 nM,42 nM,Cc1cc(OCCCc2c3n(c4c(-c5c(C)nn(C)c5C)c(Cl)ccc24)CCC(C)N(Cc2ccc(C(=O)O)cc2)C3=O)cc(C)c1Cl (configuration not stated),
7.2 nM,51 nM,Cc1cc(OCCCc2c3n(c4c(-c5c(C)nn(C)c5C)c(Cl)ccc24)CCN(Cc2ccc(C(=O)O)cc2)C3=O)cc(C)c1Cl,
43 nM,> 200 nM,Cc1cc(OCCCc2c3n(c4c(-c5c(C)nn(C)c5C)c(Cl)ccc24)C(C)CCNC3=O)cc(C)c1Cl (configuration not stated),
